From patent US9567342B2, “Certain protein kinase inhibitors” (SHANGHAI FOCHON PHARMACEUTICAL CO., LTD., priority 2012, dated 2017)

Test system: SU-DHL-1 cells
Assay: Inhibition activity of cell proliferation (CCK-8 assay)
Type: cell-based
Settings: Homo sapiens, 72 h exposure
Protocol: SU-DHL-1 cells were seeded in 96-well tissue culture plates. On the next day, cells were exposed to various concentrations of compounds and further cultured for 72 h. Cell proliferation was then determined using Cell Counting Kit-8 [(CCK-8), Dojindo]assay. Briefly, add 10 μL of the CCK-8 solution to each well of the plate. Incubate the plate for 1-4 hours in the incubator. Measure the absorbance at 450 nm using a multi-well spectrophotometer (SpectraMAX 190, Molecular Devices). The inhibition rate (%) was calculated using the following equation: [1−(A450 Compound/A450 Control)]×100%. IC50 values were calculated according to inhibition curve by four-parameter fit.

| Structure (SMILES) | IC50 [nM] |
| --- | --- |
| Cc1cc(Nc2nc(Nc3ccccc3S(=O)(=O)C(C)C)c3c(C)n[nH]c3n2)c2c(c1C1CCNCC1)CC(CO)O2 (stereo not drawn) [Example 7, (7-(4-(2-(isopropylsulfonyl)phenylamino)-3-methyl-1H-pyrazolo[3,4-d]pyrimidin-6-ylamino)-5-methyl-4-(piperidin-4-yl)-2,3-dihydrobenzofuran-2-yl)methanol] | 298 |
| COC(=O)N1CCC(c2c(C)cc(Nc3ncc(Cl)c(Nc4ccccc4S(=O)(=O)C(C)C)n3)c3c2C[C@H](C)O3)CC1 [Example 40, (S)-methyl 4-(7-((5-chloro-4-((2-(isopropylsulfonyl)phenyl)amino)pyrimidin-2-yl)amino)-2,5-dimethyl-2,3-dihydrobenzofuran-4-yl)piperidine-1-carboxylate] | 120 |
| Cc1cc(Nc2ncc(Cl)c(Nc3ccccc3S(=O)(=O)C(C)C)n2)c2c(c1C1CCN(C(N)=O)CC1)C[C@H](C)O2 [Example 43, (S)-4-(7-((5-chloro-4-((2-(isopropylsulfonyl)phenyl)amino)pyrimidin-2-yl)amino)-2,5-dimethyl-2,3-dihydrobenzofuran-4-yl)piperidine-1-carboxamide] | 107 |
| CO[C@@H](C)C(=O)N1CCC(c2c(C)cc(Nc3ncc(Cl)c(Nc4ccccc4S(=O)(=O)C(C)C)n3)c3c2C[C@H](C)O3)CC1 [Example 58, (S)-1-(4-((S)-7-((5-chloro-4-((2-(isopropylsulfonyl)phenyl)amino)pyrimidin-2-yl)amino)-2,5-dimethyl-2,3-dihydrobenzofuran-4-yl)piperidin-1-yl)-2-methoxypropan-1-one] | 141 |
| Cc1cc(Nc2ncc(Cl)c(Nc3ccccc3S(=O)(=O)C(C)C)n2)c2c(c1C1CCN(C[C@@H](C)O)CC1)C[C@H](C)O2 [Example 35, (R)-1-(4-((S)-7-((5-chloro-4-((2-(isopropylsulfonyl)phenyl)amino)pyrimidin-2-yl)amino)-2,5-dimethyl-2,3-dihydrobenzofuran-4-yl)piperidin-1-yl)propan-2-ol] | 36.9 |
| Cc1cc(Nc2ncc(Cl)c(Nc3ccccc3S(=O)(=O)C(C)C)n2)c2c(c1C1CCN(C(=O)CN(C)C)CC1)C[C@H](C)O2 [Example 45, (S)-1-(4-(7-((5-chloro-4-((2-(isopropylsulfonyl)phenyl)amino)pyrimidin-2-yl)amino)-2,5-dimethyl-2,3-dihydrobenzofuran-4-yl)piperidin-1-yl)-2-(dimethylamino)ethanone] | 39.5 |
| Cc1cc(Nc2ncc(Cl)c(Nc3ccccc3S(=O)(=O)C(C)C)n2)c2c(c1C1CCN(CC(=O)O)CC1)C[C@@H](C)O2 [Example 20, (R)-2-(4-(7-((5-chloro-4-((2-(isopropylsulfonyl)phenyl)amino)pyrimidin-2-yl)amino)-2,5-dimethyl-2,3-dihydrobenzofuran-4-yl)piperidin-1-yl)acetic acid] | 61.9 |
| Cc1cc(Nc2ncc(Cl)c(Nc3ccccc3S(=O)(=O)C(C)C)n2)c2c(c1C1CCN(C(=O)[C@H](C)N)CC1)C[C@H](C)O2 [Example 21, (S)-2-amino-1-(4-((S)-7-((5-chloro-4-((2-(isopropylsulfonyl)phenyl)amino)pyrimidin-2-yl)amino)-2,5-dimethyl-2,3-dihydrobenzofuran-4-yl)piperidin-1-yl)propan-1-one] | 68.6 |
| Cc1cc(Nc2ncc(Cl)c(Nc3ccccc3S(=O)(=O)C(C)C)n2)c2c(c1C1CCNCC1)C[C@@H](C)O2 [Example 9, (R)-5-chloro-N-2-(2,5-dimethyl-4-(piperidin-4-yl)-2,3-dihydrobenzofuran-7-yl)-N-4-(2-(isopropylsulfonyl)phenyl)pyrimidine-2,4-diamine] | 98.3 |
| Cc1cc(Nc2ncc(Cl)c(Nc3ccccc3S(=O)(=O)C(C)C)n2)c2c(c1C1CCN(S(=O)(=O)C(C)C)CC1)C[C@@H](C)O2 [Example 53] | 110 |
| Cc1cc(Nc2ncc(Cl)c(Nc3ccccc3S(=O)(=O)C(C)C)n2)c2c(c1C1CCN(CC(N)=O)CC1)C[C@H](C)O2 [Example 25, (S)-2-(4-(7-((5-chloro-4-((2-(isopropylsulfonyl)phenyl)amino)pyrimidin-2-yl)amino)-2,5-dimethyl-2,3-dihydrobenzofuran-4-yl)piperidin-1-yl)acetamide] | 36.3 |
| Cc1cc(Nc2ncc(Cl)c(Nc3ccccc3S(=O)(=O)C(C)C)n2)c2c(c1C(=O)N1CCOCC1)C[C@H](C)O2 [Example 48, (S)-(7-((5-chloro-4-((2-(isopropylsulfonyl)phenyl)amino)pyrimidin-2-yl)amino)-2,5-dimethyl-2,3-dihydrobenzofuran-4-yl)(morpholino)methanone] | 219 |
| CO[C@H](C)C(=O)N1CCC(c2c(C)cc(Nc3ncc(Cl)c(Nc4ccccc4S(=O)(=O)C(C)C)n3)c3c2C[C@H](C)O3)CC1 [Example 55, (R)-1-(4-((S)-7-((5-chloro-4-((2-(isopropylsulfonyl)phenyl)amino)pyrimidin-2-yl)amino)-2,5-dimethyl-2,3-dihydrobenzofuran-4-yl)piperidin-1-yl)-2-methoxypropan-1-one] | 35.7 |
| CCOC(=O)CN1CCC(c2c(C)cc(Nc3ncc(Cl)c(Nc4ccccc4S(=O)(=O)C(C)C)n3)c3c2C[C@H](C)O3)CC1 [Example 41, (S)-ethyl 2-(4-(7-((5-chloro-4-((2-(isopropylsulfonyl)phenyl)amino)pyrimidin-2-yl)amino)-2,5-dimethyl-2,3-dihydrobenzofuran-4-yl)piperidin-1-yl)acetate] | 43.2 |

Compounds with a lower IC50, results first:

| IC50 [nM] | Structure (SMILES) |
| --- | --- |
| 12.5 | Cc1cc(Nc2ncc(Cl)c(Nc3ccccc3S(=O)(=O)C(C)C)n2)c2c(c1C1CCN(C(=O)CO)CC1)C[C@@H](C)O2 [Example 37, (R)-1-(4-(7-((5-chloro-4-((2-(isopropylsulfonyl)phenyl)amino)pyrimidin-2-yl)amino)-2,5-dimethyl-2,3-dihydrobenzofuran-4-yl)piperidin-1-yl)-2-hydroxyethanone] |
| 12.3 | Cc1cc(Nc2ncc(Cl)c(Nc3ccccc3S(=O)(=O)C(C)C)n2)c2c(c1C1CCN(C[C@@H](C)O)CC1)C[C@@H](C)O2 [Example 23, (R)-1-(4-((R)-7-((5-chloro-4-((2-(isopropylsulfonyl)phenyl)amino)pyrimidin-2-yl)amino)-2,5-dimethyl-2,3-dihydrobenzofuran-4-yl)piperidin-1-yl)propan-2-ol] |
| < 4.1 | Cc1cc(Nc2ncc(Cl)c(Nc3ccccc3S(=O)(=O)C(C)C)n2)c2c(c1C1CCNCC1)C[C@H](C)O2 [Example 11, (S)-5-chloro-N-2-(2,5-dimethyl-4-(piperidin-4-yl)-2,3-dihydrobenzofuran-7-yl)-N-4-(2-(isopropylsulfonyl)phenyl)pyrimidine-2,4-diamine] |
| 11.8 | Cc1cc(Nc2ncc(Cl)c(Nc3ccccc3S(=O)(=O)C(C)C)n2)c2c(c1C1CCN(CCO)CC1)C[C@@H](C)O2 [Example 33, (R)-2-(4-(7-((5-chloro-4-((2-(isopropylsulfonyl)phenyl)amino)pyrimidin-2-yl)amino)-2,5-dimethyl-2,3-dihydrobenzofuran-4-yl)piperidin-1-yl)ethanol] |
| 26.3 | CO[C@H](C)C(=O)N1CCC(c2c(C)cc(Nc3ncc(Cl)c(Nc4ccccc4S(=O)(=O)C(C)C)n3)c3c2C[C@@H](C)O3)CC1 [Example 56, (R)-1-(4-((R)-7-((5-chloro-4-((2-(isopropylsulfonyl)phenyl)amino)pyrimidin-2-yl)amino)-2,5-dimethyl-2,3-dihydrobenzofuran-4-yl)piperidin-1-yl)-2-methoxypropan-1-one] |
| 32.8 | CO[C@@H](C)C(=O)N1CCC(c2c(C)cc(Nc3ncc(Cl)c(Nc4ccccc4S(=O)(=O)C(C)C)n3)c3c2C[C@@H](C)O3)CC1 [Example 57, (S)-1-(4-((R)-7-((5-chloro-4-((2-(isopropylsulfonyl)phenyl)amino)pyrimidin-2-yl)amino)-2,5-dimethyl-2,3-dihydrobenzofuran-4-yl)piperidin-1-yl)-2-methoxypropan-1-one] |
| < 0.2 | Cc1cc(Nc2ncc(Cl)c(Nc3ccccc3S(=O)(=O)C(C)C)n2)c2c(c1C1CCN(C)CC1)C[C@@H](C)O2 [Example 10, (R)-5-chloro-N-2-(2,5-dimethyl-4-(1-methylpiperidin-4-yl)-2,3-dihydrobenzofuran-7-yl)-N-4-(2-(isopropylsulfonyl)phenyl)pyrimidine-2,4-diamine] |
| 17.4 | Cc1cc(Nc2ncc(Cl)c(Nc3ccccc3S(=O)(=O)C(C)C)n2)c2c(c1C1CCN(CCS(C)(=O)=O)CC1)C[C@@H](C)O2 [Example 30] |
| 8.3 | Cc1cc(Nc2ncc(Cl)c(Nc3ccccc3S(=O)(=O)C(C)C)n2)c2c(c1C1CCN(C[C@H](C)O)CC1)C[C@@H](C)O2 [Example 24, (S)-1-(4-((R)-7-((5-chloro-4-((2-(isopropylsulfonyl)phenyl)amino)pyrimidin-2-yl)amino)-2,5-dimethyl-2,3-dihydrobenzofuran-4-yl)piperidin-1-yl)propan-2-ol] |
| 12.1 | Cc1cc(Nc2nc(Nc3ccccc3S(=O)(=O)C(C)C)c3c(C)n[nH]c3n2)c2c(c1C1CCNCC1)C[C@H](C)O2 [Example 5] |
| 6.6 | Cc1cc(Nc2ncc(Cl)c(Nc3ccccc3S(=O)(=O)C(C)C)n2)c2c(c1C1CCN(C)CC1)CCO2 [Example 14] |
| 4 | Cc1cc(Nc2ncc(Cl)c(Nc3ccccc3S(=O)(=O)C(C)C)n2)c2c(c1C1CCN(C)CC1)C[C@H](C)O2 [Example 12] |
| 12.3 | Cc1cc(Nc2ncc(Cl)c(Nc3ccccc3S(=O)(=O)C(C)C)n2)c2c(c1C1CCN(CCO)CC1)C[C@H](C)O2 [Example 34, (S)-2-(4-(7-((5-chloro-4-((2-(isopropylsulfonyl)phenyl)amino)pyrimidin-2-yl)amino)-2,5-dimethyl-2,3-dihydrobenzofuran-4-yl)piperidin-1-yl)ethanol] |
